Measurements: patent US12709592B2, “Salts of treprostinil” (United Therapeutics Corporation, priority 2013, dated 2026)
Counter-ions that a name gives are not always drawn.

Assay: TGA data of UT-15 salts (thermal degradation)
Format: physicochemical
Conditions: thermogravimetric analysis of the isolated solid salt; temperature beyond which weight loss due to degradation occurs
From the text: For all new UT-15 salts, analytical data: IH-NMR, 13C_NMR, IR, purity by HPLC, DSC data, TGA data, water contents, specific rotation were collected.

Question: Which “TGA: loss due to degradation beyond” value does the source give for `CCCCC[C@H](O)CC[C@@H]1[C@H]2Cc3cccc(OCC(=O)O)c3C[C@H]2C[C@H]1O` [Choline Salt] here?
Answer: degradation beyond 150 °C

Question: Which “TGA: loss due to degradation beyond” value does the source give for `CCCCC[C@H](O)CC[C@@H]1[C@H]2Cc3cccc(OCC(=O)O)c3C[C@H]2C[C@H]1O` [Arginine Salt] here?
Answer: Moisture = 2.07, degradation beyond 200 °C

Question: Which “TGA: loss due to degradation beyond” value does the source give for `CCCCC[C@H](O)CC[C@@H]1[C@H]2Cc3cccc(OCC(=O)[O][MgH])c3C[C@H]2C[C@H]1O` [Mg Salt] here?
Answer: degradation beyond 250 °C

Question: With `CCCCC[C@H](O)CC[C@@H]1[C@H]2Cc3cccc(OCC(=O)O)c3C[C@H]2C[C@H]1O` [L-Lysine Salt] as the compound, how does the “TGA: loss due to degradation beyond” value read?
Answer: degradation beyond 200 °C

Question: For `CCCCC[C@H](O)CC[C@@H]1[C@H]2Cc3cccc(OCC(=O)O)c3C[C@H]2C[C@H]1O` [N-Methylglucamine Salt], which “TGA: loss due to degradation beyond” value is on record?
Answer: degradation beyond 150 °C

Question: For `CCCCC[C@H](O)CC[C@@H]1[C@H]2Cc3cccc(OCC(=O)[O-])c3C[C@H]2C[C@H]1O.[K+]` [Potassium Salt], which “TGA: loss due to degradation beyond” value is on record?
Answer: degradation beyond 250 °C
